Active and inactive are the calls of the source.
Columns and labels:
[1] = biological target: Aryl hydrocarbon receptor (Homo sapiens, UniProt P35869); assay: Luminescence-based cell-based high throughput dose response assay for activators of the Aryl Hydrocarbon Receptor (AHR). [Related pubchem assays: 2796 (Primary screen (AHR activators in singlicate)), 2845 (Confirmation screen (AHR activators in triplicate)), 434939 (Counterscreen (PXR activators in triplicate)), 2804 (Summary (AHR activators))]; type: ADME
[2] = biological target: T1, Streptokinase A (Streptococcus pyogenes serotype M1, UniProt P10520); assay: viability-normalized secreted streptokinase activity reduction – plasminogen activation absorbance, OD405, dose response (AID 1914); type: functional, Streptococcus pyogenes M1 GAS;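 further: secreted streptokinase activity via plasminogen activation per viability signal from cell pellet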
T1 sequence (P10520 whole entry): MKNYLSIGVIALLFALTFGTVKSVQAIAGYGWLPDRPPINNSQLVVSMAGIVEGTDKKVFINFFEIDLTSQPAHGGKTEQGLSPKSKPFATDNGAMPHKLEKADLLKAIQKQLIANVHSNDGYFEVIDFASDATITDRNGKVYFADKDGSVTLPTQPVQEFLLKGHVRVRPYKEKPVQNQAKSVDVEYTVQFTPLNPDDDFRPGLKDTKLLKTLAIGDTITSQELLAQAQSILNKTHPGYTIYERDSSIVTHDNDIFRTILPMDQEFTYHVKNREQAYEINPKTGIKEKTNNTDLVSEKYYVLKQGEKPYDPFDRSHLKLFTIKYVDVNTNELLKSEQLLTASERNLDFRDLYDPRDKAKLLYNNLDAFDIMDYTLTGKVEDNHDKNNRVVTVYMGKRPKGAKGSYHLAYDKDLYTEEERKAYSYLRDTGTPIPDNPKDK

[3] = inhibition of ADAM10 peptide cleavage – biochemical, FRET peptide substrate, recombinant human ADAM10, selectivity assay for ADAM17 exosite inhibitor project, dose response (AID 743259);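 further: ADAM10 enzyme cleaving a FRET peptide substrate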
[4] = biological target: Disintegrin and metalloproteinase domain-containing protein 17 (Homo sapiens, UniProt P78536); assay: exosite inhibitors of ADAM17, dose response, biochemical (AID 743260)
[5] = biological target: Mitogen-activated protein kinase 10 (Homo sapiens, UniProt P53779); assay: Dose response biochemical screening assay for inhibitors of c-Jun N-Terminal Kinase 3 (JNK3). [Related pubchem assays: 746 ]
[6] = biological target: T2, Carboxy-terminal domain RNA polymerase II polypeptide A small phosphatase 1 (Homo sapiens, UniProt Q9GZU7); assay: CTDSP1 inhibitors, concentration-response, biochemical, absorbance readout, ultra-high-throughput screen actives (AID 540297); type: functional
T2 sequence (Q9GZU7 whole entry): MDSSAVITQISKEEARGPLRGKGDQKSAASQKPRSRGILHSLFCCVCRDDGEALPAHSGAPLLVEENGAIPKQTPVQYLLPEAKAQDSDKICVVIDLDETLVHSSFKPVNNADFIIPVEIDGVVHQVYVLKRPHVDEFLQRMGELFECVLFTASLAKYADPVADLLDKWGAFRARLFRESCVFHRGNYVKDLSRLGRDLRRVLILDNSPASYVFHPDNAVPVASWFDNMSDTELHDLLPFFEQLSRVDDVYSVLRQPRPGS

[7] = biological target: T3, Ubiquitin-conjugating enzyme E2 N (Homo sapiens, UniProt P61088); type: functional;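 further: Dose-response confirmation in a TR-FRET assay detecting UBC13-driven polyubiquitin chain formation, inhibition measured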
T3 sequence (P61088 whole entry): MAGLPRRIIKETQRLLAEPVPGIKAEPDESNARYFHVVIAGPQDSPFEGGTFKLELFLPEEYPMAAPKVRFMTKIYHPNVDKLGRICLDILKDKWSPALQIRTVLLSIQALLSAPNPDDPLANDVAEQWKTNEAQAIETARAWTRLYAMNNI

[8] = cells
[9] = biological target: Major prion protein (Homo sapiens, UniProt P04156); type: functional, cell-based
[10] = Luminescence Cell-Based Dose Response to Identify Activators of Luciferase Translation or Activity in H4-C Neuroglioblastoma Cells. [Related pubchem assays: 1829 (Project Summary), 1814 (Primary HTS)]; type: functional
[11] = Luminescence Cell-Based Dose Response to Identify Activators of 5'UTR Stem-Loop Driven Prion Protein mRNA Translation in H4-C Neuroglioblastoma Cells. [Related pubchem assays: 1829 (Project Summary), 1814 (Primary HTS)]; type: functional
[12] = tested on: H4; assay: Luminescence Cell-Based Dose Response HTS to Identify Activators of 5'UTR Stem-Loop Driven Prion Protein mRNA Translation in H4 Neuroglioblastoma Cells. [Related pubchem assays: 1829 (Project Summary), 1814 (Primary HTS)]; type: functional; settings: Homo sapiens
[13] = Luminescence Cell-Based Dose Confirmation to Identify Activators of 5'UTR Stem-Loop Driven Alpha-Synuclein mRNA Translation in H4 Neuroglioblastoma Cells. [Related pubchem assays: 1829 (Project Summary), 1814 (Primary HTS)]; type: functional
[14] = Luminescence Cell-Based Dose Response HTS to Identify Activators of Luciferase Translation or Activity in H4 […] Cells. [Related pubchem assays: 1829 (Project Summary), 1814 (Primary HTS)]; type: functional
[15] = Luminescence Cell-Based Dose Confirmation HTS to Identify Activators of 5'UTR Stem-Loop Driven Alpha-Synuclein mRNA Translation in H4 Neuroglioblastoma Cells. [Related pubchem assays: 1829 (Project Summary), 1814 (Primary HTS)]; type: functional

Cc1ccc(NC(=S)c2nc3ccccc3[nH]2)c(C)c1
EC50 [1]: 3.65 µM (active) | EC50 [2]: > 150 µM (not active)

Cc1nn(Cc2ccccc2Cl)c2sc(C(=O)NCc3ccc4c(c3)OCO4)cc12
IC50 [3]: > 69.5 µM (inactive) | IC50 [4]: > 69.5 µM (inactive)

O=C(CCCCCn1c(SCc2ccncc2)nc2ccccc2c1=O)NCc1ccco1
IC50 [5]: 73.1 µM (not active) | IC50 [6]: 35.8 µM (active) | IC50 [7]: > 20 µM (inactive)

COc1ccc(C(=O)NNC(=O)CSc2nc(C(C)C)nc3ccccc23)cc1
IC50 [8]: > 138 µM (inactive) | IC50 [9]: 1.98 µM (active)

CC(C)(C)c1ccc(OC(=O)N2CCCCC2)cc1
EC50 [10]: 0.364 µM (active) | EC50 [11]: 1.01 µM (active) | EC50 [12]: 44.5 µM (active) | EC50 [13]: 1.13 µM (active) | EC50 [14]: < 0.1 µM (active)

O=c1[nH]c(=O)n(Cc2ccco2)c2c1C(C(F)(F)F)(C(F)(F)F)NC(CCc1ccccc1)=N2
IC50 [8]: 54.4 µM (inactive) | IC50 [9]: 8.51 µM (active)

Cn1cc(Br)c(C(=O)Nc2sc3c(c2C(N)=O)CCCC3)n1
EC50 [10]: > 12 µM (not active) | EC50 [11]: > 12 µM (not active) | EC50 [12]: 0.117 µM (active) | EC50 [15]: 13.3 µM (active) | EC50 [13]: > 12 µM (not active) | EC50 [14]: 13.6 µM (active)

COC(=O)c1cccc(Cn2nnc3ccccc3c2=O)c1
IC50 [5]: 78.8 µM (not active)

Reference: ChEMBL document CHEMBL1201862, “PubChem BioAssay data set” (2004)
